What was measured:
lipoamide = compound: NC(=O)CCCCC1CCSS1 [lipoamide]; test: thermal stability z-score vs DMSO; higher = more thermally stabilized by treatment; details: HeLa, lipoamide concentration 100 µM
Procedure: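 Cellular thermal proteome profiling in HeLa cells. Cells were treated with 100 µM lipoamide for 1 h, with or without 1 mM arsenate for a further 1 h, then heated to ten temperatures (37-66.3 °C), and soluble protein was quantified by TMT mass spectrometry relative to 0.1% DMSO controls. The thermal stability score (sum of log2 fold changes minus the abundance score) was transformed to a z-score; mean of n = 3 experiments.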

potassium arsenate = compound: O=[As]([O-])(O)O.[K+] [potassium arsenate]; test: as above; details: HeLa; arsenate concentration 1 mM
Procedure: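 Cellular thermal proteome profiling in HeLa cells treated with 1 mM arsenate for 1 h (DMSO pretreatment), heated to ten temperatures (37-66.3 °C). Soluble protein was quantified by TMT mass spectrometry relative to DMSO controls; the thermal stability score was transformed to a z-score; mean of n = 3 experiments.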

[1] = arsenate co-treatment: 1 mM arsenate 1 h
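Note: each temperature applied for 3 min, abundance score taken as mean log2 fold change at the two lowest temperatures, z-score obtained by mean subtraction and division by SD.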

UniProt O60502, sequence (O60502 whole entry): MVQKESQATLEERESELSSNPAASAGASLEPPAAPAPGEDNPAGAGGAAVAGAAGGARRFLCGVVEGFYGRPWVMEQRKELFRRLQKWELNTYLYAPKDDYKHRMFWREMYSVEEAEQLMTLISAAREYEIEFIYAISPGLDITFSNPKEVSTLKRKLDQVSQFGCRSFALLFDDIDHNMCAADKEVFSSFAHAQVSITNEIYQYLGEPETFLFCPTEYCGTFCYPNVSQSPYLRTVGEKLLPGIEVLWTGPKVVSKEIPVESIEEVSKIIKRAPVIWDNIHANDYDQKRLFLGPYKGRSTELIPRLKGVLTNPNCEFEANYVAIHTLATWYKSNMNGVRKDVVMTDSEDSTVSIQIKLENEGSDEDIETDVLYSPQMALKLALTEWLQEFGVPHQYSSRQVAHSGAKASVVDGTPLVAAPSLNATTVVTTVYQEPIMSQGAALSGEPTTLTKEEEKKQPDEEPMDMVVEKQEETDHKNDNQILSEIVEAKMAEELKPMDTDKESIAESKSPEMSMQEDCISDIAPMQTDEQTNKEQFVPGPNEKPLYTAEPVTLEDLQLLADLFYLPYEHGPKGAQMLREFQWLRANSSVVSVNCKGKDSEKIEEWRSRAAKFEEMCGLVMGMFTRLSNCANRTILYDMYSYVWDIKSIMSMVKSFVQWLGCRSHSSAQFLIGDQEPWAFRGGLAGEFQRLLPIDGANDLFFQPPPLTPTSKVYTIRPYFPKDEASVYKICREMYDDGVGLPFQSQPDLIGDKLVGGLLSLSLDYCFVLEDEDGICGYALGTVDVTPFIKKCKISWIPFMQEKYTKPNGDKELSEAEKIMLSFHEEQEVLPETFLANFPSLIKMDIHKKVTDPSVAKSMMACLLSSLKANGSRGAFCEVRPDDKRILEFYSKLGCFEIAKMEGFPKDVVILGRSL
UniProt Q7LGA3, sequence (Q7LGA3 whole entry): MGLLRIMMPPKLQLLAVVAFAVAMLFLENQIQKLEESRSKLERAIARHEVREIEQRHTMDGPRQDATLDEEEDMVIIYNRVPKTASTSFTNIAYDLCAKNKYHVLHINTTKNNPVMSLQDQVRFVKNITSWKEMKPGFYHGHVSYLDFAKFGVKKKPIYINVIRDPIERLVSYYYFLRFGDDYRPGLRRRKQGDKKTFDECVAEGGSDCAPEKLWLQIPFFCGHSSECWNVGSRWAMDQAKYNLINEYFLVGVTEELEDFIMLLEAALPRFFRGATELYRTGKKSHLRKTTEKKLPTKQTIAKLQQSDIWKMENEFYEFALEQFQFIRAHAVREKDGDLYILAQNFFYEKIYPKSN
UniProt P38435, sequence (P38435 whole entry): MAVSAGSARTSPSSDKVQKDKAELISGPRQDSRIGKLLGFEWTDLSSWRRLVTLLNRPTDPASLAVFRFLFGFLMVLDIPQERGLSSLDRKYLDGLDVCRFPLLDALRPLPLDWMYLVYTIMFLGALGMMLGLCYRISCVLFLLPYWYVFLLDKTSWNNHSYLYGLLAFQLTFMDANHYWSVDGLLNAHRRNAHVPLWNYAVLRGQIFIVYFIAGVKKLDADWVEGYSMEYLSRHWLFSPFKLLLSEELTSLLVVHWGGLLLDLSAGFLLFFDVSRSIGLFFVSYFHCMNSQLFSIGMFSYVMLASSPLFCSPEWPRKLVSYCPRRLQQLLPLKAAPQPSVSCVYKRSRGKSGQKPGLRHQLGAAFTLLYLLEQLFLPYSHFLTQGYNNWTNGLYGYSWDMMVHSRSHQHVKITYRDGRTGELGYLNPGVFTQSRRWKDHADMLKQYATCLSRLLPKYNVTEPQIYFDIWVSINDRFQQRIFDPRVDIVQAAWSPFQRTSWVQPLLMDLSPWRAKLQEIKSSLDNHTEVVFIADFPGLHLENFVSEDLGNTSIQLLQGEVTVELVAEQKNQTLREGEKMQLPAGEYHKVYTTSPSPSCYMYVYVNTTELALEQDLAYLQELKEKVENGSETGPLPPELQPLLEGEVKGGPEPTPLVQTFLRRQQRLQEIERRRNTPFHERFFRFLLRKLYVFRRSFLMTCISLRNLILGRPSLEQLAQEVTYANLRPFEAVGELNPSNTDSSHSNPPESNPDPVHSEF
UniProt Q8WVX9, sequence (Q8WVX9 whole entry): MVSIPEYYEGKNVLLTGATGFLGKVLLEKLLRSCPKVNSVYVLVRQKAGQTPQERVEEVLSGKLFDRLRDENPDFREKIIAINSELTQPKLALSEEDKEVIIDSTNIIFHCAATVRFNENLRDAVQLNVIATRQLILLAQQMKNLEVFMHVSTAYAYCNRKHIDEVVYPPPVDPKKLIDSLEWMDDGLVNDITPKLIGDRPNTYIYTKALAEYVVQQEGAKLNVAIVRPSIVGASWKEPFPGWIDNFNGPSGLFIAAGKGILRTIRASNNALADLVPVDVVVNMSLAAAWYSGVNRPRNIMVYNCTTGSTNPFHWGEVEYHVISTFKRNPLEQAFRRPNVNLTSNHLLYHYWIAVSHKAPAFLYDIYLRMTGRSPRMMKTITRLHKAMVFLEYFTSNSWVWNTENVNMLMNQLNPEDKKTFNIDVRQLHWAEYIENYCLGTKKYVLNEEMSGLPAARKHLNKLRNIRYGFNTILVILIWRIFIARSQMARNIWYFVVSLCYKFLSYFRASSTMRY
UniProt Q14152, sequence (Q14152 whole entry): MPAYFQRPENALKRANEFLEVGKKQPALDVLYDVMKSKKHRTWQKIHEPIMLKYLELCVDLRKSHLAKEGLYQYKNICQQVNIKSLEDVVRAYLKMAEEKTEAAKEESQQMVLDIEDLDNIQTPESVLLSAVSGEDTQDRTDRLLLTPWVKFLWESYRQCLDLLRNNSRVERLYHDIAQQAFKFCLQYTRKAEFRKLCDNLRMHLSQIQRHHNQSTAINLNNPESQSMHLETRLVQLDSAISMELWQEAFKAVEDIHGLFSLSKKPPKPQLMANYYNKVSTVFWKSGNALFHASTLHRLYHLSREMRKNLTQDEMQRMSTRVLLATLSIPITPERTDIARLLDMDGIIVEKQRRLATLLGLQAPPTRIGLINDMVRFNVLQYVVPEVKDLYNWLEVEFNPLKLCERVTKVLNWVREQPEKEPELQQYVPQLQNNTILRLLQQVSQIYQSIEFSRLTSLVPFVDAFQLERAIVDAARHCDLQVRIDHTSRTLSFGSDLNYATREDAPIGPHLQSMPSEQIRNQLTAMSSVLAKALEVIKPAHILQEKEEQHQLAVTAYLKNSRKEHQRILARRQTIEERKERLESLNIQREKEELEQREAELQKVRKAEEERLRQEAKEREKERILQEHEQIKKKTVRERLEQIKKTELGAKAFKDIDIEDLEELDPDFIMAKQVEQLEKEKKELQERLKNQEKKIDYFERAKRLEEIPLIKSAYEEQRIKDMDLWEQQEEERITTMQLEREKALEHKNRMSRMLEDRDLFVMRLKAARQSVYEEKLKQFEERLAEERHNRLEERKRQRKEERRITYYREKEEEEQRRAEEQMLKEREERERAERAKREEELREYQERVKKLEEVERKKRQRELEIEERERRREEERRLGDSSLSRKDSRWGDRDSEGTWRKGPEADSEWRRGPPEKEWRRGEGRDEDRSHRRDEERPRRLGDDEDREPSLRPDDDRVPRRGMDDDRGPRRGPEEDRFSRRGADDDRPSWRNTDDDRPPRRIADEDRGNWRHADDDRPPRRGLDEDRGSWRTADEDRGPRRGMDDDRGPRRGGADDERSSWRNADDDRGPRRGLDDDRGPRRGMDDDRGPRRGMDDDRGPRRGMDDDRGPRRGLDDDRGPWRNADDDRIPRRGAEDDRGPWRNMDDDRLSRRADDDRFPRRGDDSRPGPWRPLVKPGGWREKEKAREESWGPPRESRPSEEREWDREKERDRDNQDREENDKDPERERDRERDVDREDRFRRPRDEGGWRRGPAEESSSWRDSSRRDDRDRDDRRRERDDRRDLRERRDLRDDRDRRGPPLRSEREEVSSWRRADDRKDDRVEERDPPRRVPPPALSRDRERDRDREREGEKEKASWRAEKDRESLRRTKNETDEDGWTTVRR
UniProt P50747, sequence (P50747 whole entry): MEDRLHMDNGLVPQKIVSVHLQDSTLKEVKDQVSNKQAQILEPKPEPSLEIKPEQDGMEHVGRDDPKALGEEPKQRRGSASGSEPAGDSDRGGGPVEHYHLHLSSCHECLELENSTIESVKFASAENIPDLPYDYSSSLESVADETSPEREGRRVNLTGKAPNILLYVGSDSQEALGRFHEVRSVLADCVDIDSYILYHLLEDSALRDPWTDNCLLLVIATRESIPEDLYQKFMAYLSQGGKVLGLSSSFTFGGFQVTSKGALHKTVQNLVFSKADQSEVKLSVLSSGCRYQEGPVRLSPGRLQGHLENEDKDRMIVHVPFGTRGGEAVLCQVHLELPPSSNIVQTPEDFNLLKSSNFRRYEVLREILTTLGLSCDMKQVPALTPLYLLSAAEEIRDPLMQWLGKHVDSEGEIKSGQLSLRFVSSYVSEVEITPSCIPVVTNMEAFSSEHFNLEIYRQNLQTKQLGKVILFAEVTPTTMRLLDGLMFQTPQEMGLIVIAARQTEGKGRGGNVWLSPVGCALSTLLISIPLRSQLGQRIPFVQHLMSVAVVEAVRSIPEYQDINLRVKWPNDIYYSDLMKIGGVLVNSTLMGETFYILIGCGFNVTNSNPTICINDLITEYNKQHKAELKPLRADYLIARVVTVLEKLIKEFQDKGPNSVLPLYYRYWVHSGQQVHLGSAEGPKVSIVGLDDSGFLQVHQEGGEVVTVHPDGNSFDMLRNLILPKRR
UniProt P11802, sequence (P11802 whole entry): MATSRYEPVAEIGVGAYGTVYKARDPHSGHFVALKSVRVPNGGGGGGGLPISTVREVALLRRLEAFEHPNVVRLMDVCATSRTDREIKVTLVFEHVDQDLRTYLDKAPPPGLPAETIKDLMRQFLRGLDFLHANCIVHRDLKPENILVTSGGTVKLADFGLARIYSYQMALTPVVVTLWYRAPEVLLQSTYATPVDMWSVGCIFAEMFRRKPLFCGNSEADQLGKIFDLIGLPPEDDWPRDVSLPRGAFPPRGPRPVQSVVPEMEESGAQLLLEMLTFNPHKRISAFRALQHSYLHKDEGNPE
UniProt O14949, sequence (O14949 whole entry): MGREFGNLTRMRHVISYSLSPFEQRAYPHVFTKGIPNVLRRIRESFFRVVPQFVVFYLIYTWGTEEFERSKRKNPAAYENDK

Row | Target | thermal stability z-score (lipoamide; [1]) | thermal stability z-score (lipoamide; arsenate co-treatment: none) | thermal stability z-score (potassium arsenate)
1 | KDM4A (UniProt O75164) | -0.16 | -0.11 | -0.178
2 | IL1RAP (UniProt Q9NPH3) | -0.15 | -0.0435 | -0.164
3 | MYH9 (UniProt P35579) | 0.442 | 0.363 | 0.2
4 | VAV2 (UniProt P52735) | 0.0635 | 0.172 | 0.835
5 | UBFD1 (UniProt O14562) | -0.0131 | -0.0151 | 0.066
6 | IK (UniProt Q13123) | 1.25 | 0.908 | 1.75
7 | APOO (UniProt Q9BUR5) | 0.803 | 0.64 | 0.23
8 | ZMYM1 (UniProt Q5SVZ6) | 0.0919 | 0.0471 | -0.798
9 | PDK1 (UniProt Q15118) | 0.35 | -0.0874 | 0.836
10 | IAH1 (UniProt Q2TAA2) | 0.672 | 0.79 | -0.173
11 | NACA | 0.468 | 0.47 | 0.508
12 | NDUFS5 (UniProt O43920) | -0.473 | -0.963 | 0.133
13 | ACTG1 (UniProt P63261) | -0.494 | -0.484 | -0.572
14 | OPA3 (UniProt Q9H6K4) | 1.42 | 0.732 | 0.247
15 | MOB2 (UniProt Q70IA6) | -0.235 | -0.176 | 0.0529
16 | WDR6 (UniProt Q9NNW5) | -0.00677 | 0.325 | 0.0479
17 | NOA1 (UniProt Q8NC60) | 0.222 | 0.0658 | -0.0924
18 | SLC25A24 (UniProt Q6NUK1) | -0.0911 | -0.127 | 0.205
19 | TMEM55B (UniProt Q86T03) | 0.572 | 0.963 | 0.592
20 | PEX1 (UniProt O43933) | -0.254 | -0.723 | -0.382
21 | FANCA (UniProt O15360) | -0.0907 | -0.00129 | -0.103
22 | PAAF1 (UniProt Q9BRP4) | -0.442 | -0.906 | -0.478
23 | FAR1 (UniProt Q8WVX9) | -0.177 | -0.0751 | 0.544
24 | POM121C (UniProt A8CG34) | 1.24 | -0.678 | 1.38

Row | Target | thermal stability z-score (lipoamide; [1]) | thermal stability z-score (lipoamide; arsenate co-treatment: none) | thermal stability z-score (potassium arsenate)
25 | NF1 (UniProt P21359) | -0.487 | -0.235 | -0.72
26 | PPP1R7 (UniProt Q15435) | 0.128 | -0.182 | -0.488
27 | CBX1 (UniProt P83916) | 0.402 | 0.214 | 0.0814
28 | MGEA5 (UniProt O60502) | -0.365 | -0.157 | -0.187
29 | PPTC7 (UniProt Q8NI37) | -0.248 | -0.287 | 0.222
30 | TMEM192 (UniProt Q8IY95) | -0.861 | 0.064 | -0.137
31 | LDHB (UniProt P07195) | 0.679 | 0.658 | 0.13
32 | CDK4 (UniProt P11802) | 1.15 | 1.03 | 0.783
33 | IDI1 (UniProt Q13907) | 1.01 | 0.458 | 0.042
34 | RRS1 (UniProt Q15050) | 1.32 | -0.132 | -2.24
35 | TMED9 (UniProt Q9BVK6) | -1.24 | -1.5 | 0.151
36 | UQCRQ (UniProt O14949) | 0.971 | 0.797 | 1.28
37 | GGCX (UniProt P38435) | -0.482 | -0.632 | -0.0562
38 | CHTF18 (UniProt Q8WVB6) | -0.117 | -0.0426 | -0.0702
39 | NCOA5 (UniProt Q9HCD5) | 1.91 | 0.857 | 1.05
40 | STRN4 (UniProt Q9NRL3) | -0.136 | 0.198 | 0.937
41 | STAM (UniProt Q92783) | -0.258 | 0.0211 | -0.0683
42 | DHRS7 (UniProt Q9Y394) | -0.365 | -0.498 | 0.437
43 | ATP6AP2 (UniProt O75787) | -2.63 | -2.3 | -0.366
44 | TESC (UniProt Q96BS2) | 0.565 | 0.315 | 0.846
45 | HLCS (UniProt P50747) | -1.26 | -0.885 | -0.0791
46 | IFI35 (UniProt P80217) | 1.36 | 0.774 | 2.08
47 | ANXA8L1 (UniProt Q5VT79) | -0.11 | -0.0845 | 0.00565
48 | AKT1S1 (UniProt Q96B36) | -0.0956 | -0.229 | -0.504

Row | Target | thermal stability z-score (lipoamide; [1]) | thermal stability z-score (lipoamide; arsenate co-treatment: none) | thermal stability z-score (potassium arsenate)
49 | STK4 (UniProt Q13043) | 0.0921 | -0.0308 | -0.188
50 | MDH1 (UniProt P40925) | 0.208 | 0.368 | -1.45
51 | MRPL3 (UniProt P09001) | -0.851 | -0.0275 | -0.132
52 | UTP15 (UniProt Q8TED0) | 0.625 | 0.147 | 0.528
53 | CYFIP1 (UniProt Q7L576) | -0.422 | -0.325 | -1.67
54 | NEXN (UniProt Q0ZGT2) | 0.00122 | 0.037 | 0.0665
55 | CSPG4 (UniProt Q6UVK1) | -0.203 | -0.907 | -0.945
56 | PFKM (UniProt P08237) | 0.24 | 0.235 | -0.134
57 | STK10 (UniProt O94804) | -0.201 | -0.0461 | 0.146
58 | RPAP1 (UniProt Q9BWH6) | -0.806 | -0.223 | 0.256
59 | TCP11L1 (UniProt Q9NUJ3) | -0.328 | 0.00441 | 0.586
60 | EIF3A (UniProt Q14152) | 0.713 | 0.446 | 0.432
61 | EML4 (UniProt Q9HC35) | -0.51 | -0.693 | 1.33
62 | KIF13A (UniProt Q9H1H9) | 0.286 | -0.0098 | 0.0799
63 | MSMO1 (UniProt Q15800) | -1.28 | -1.47 | 0.343
64 | CDC42BPB (UniProt Q9Y5S2) | -0.57 | -0.124 | -0.221
65 | NAA20 (UniProt P61599) | 0.753 | 0.153 | 0.0823
66 | EXOSC6 (UniProt Q5RKV6) | 0.123 | 0.0946 | -1.85
67 | VAT1 (UniProt Q99536) | 0.819 | 0.762 | 1.37
68 | TPBG (UniProt Q13641) | -0.727 | -0.884 | -0.766
69 | SLC15A4 (UniProt Q8N697) | 0.836 | 0.0913 | -0.239
70 | HS2ST1 (UniProt Q7LGA3) | 0.123 | -0.171 | 0.457
71 | TNFRSF1A (UniProt P19438) | -0.0438 | -0.00708 | 0.164
72 | MAP7D1 (UniProt Q3KQU3) | 0.172 | -0.0726 | -0.702
